Patent US10787451B2, “Crystalline form of GnRH receptor antagonist and preparation method therefor” (Jiangsu Hengrui Medicine Co., Ltd., priority 2016, dated 2020)
“Also recorded” adds a separate entry of the source.

Columns and labels:
[1] = Stability test of crystal forms spread flat in the air under lighting, heating and high humidity (HPLC purity, XRPD); type: physicochemical; conditions: for purity as detected by HPLC, 40° C.: heating 40° C.; for purity as detected by HPLC, 40° C. / purity as detected by HPLC, 60° C. / purity as detected by HPLC, RH 75% / purity as detected by HPLC, RH 90% / purity as detected by HPLC, Lighting: spread flat in the air; for purity as detected by HPLC, 60° C.: heating 60° C.; for purity as detected by HPLC, RH 75%: high humidity RH 75%; for purity as detected by HPLC, RH 90%: high humidity RH 90%; for purity as detected by HPLC, Lighting: lighting (4500 Lux)
Experimental: The product sample of crystal form I prepared in Example 1 and the product samples of crystal forms A, B, C and D prepared in Examples 12, 13, 14 and 15 were spread flat in the air to test sample stability under conditions of lighting (4500 Lux), heating (40° C., 60° C.), and high humidity (RH 75%, RH 90%). Samplings were carried out on Day 5 and Day 10.

[2] = Special stability study of crystal form I (grinding, heating, tableting; XRPD and DSC); type: physicochemical
Experimental: 1. Differential Scanning Calorimeter, DSC
Instrument type: Mettler Toledo DSC 1 STAR^e System
Heating rate: 10.0° C./min
Temperature range: 40-300° C.
2. X-Ray Powder Diffraction, XRPD
Instrument type: Bruker D8 Focus X-ray powder diffractometer
Ray: monochromatic Cu-Kα ray (λ=1.5406)
Scanning mode: θ/2θ, Scanning range: 2-40°
Voltage: 40 kV, Electric current: 40 mA
The sample of crystal form I of the compound of formula (I) prepared according to the method of Example 1 was ground, heated and tableted.

Row | purity as detected by HPLC, 40° C. ([1]; Day 0) [%] | purity as detected by HPLC, 40° C. ([1]; Day 5) [%] | purity as detected by HPLC, 40° C. ([1]; Day 10) [%] | purity as detected by HPLC, 60° C. ([1]; Day 0) [%] | purity as detected by HPLC, 60° C. ([1]; Day 5) [%] | purity as detected by HPLC, 60° C. ([1]; Day 10) [%] | purity as detected by HPLC, RH 75% ([1]; Day 0) [%] | purity as detected by HPLC, RH 75% ([1]; Day 5) [%] | purity as detected by HPLC, RH 75% ([1]; Day 10) [%] | purity as detected by HPLC, RH 90% ([1]; Day 0) [%] | purity as detected by HPLC, RH 90% ([1]; Day 5) [%] | purity as detected by HPLC, RH 90% ([1]; Day 10) [%] | purity as detected by HPLC, Lighting ([1]; Day 0) [%] | purity as detected by HPLC, Lighting ([1]; Day 5) [%] | purity as detected by HPLC, Lighting ([1]; Day 10) [%] | SMILES | further results
1 | 97.86 | 97.50 | 97.52 | 97.86 | 97.62 | 97.50 | 97.86 | 97.61 | 97.65 | 97.86 | 97.59 | 97.79 | 97.86 | 97.27 | 97.13 | CONC(=O)Nc1ccc(-n2nc3c(c2CN(C)C)c(=O)n(-c2ccc(OC)nn2)c(=O)n3Cc2c(F)cccc2F)cc1 [Crystal form A, 1-(4-(7-(2,6-Difluorobenzyl)-3-((dimethylamino)methyl)-5-(6-methoxypyridazin-3-yl)-4,6-dioxo-4,5,6,7-tetrahydro-2H-pyrazolo[3,4-d]pyrimidin-2-yl)phenyl)-3-methoxy urea] | –
2 | 99.69 | 99.45 | 99.03 | 99.69 | 99.45 | 99.34 | 99.69 | 99.52 | 99.34 | 99.69 | 99.47 | 99.34 | 99.69 | 99.39 | 99.19 | CONC(=O)Nc1ccc(-n2nc3c(c2CN(C)C)c(=O)n(-c2ccc(OC)nn2)c(=O)n3Cc2c(F)cccc2F)cc1 [Crystal form B, 1-(4-(7-(2,6-Difluorobenzyl)-3-((dimethylamino)methyl)-5-(6-methoxypyridazin-3-yl)-4,6-dioxo-4,5,6,7-tetrahydro-2H-pyrazolo[3,4-d]pyrimidin-2-yl)phenyl)-3-methoxy urea] | –

The next lines start with the compound.

Row | SMILES | purity as detected by HPLC, 40° C. ([1]; Day 0) [%] | purity as detected by HPLC, 40° C. ([1]; Day 5) [%] | purity as detected by HPLC, 40° C. ([1]; Day 10) [%] | purity as detected by HPLC, 60° C. ([1]; Day 0) [%] | purity as detected by HPLC, 60° C. ([1]; Day 5) [%] | purity as detected by HPLC, 60° C. ([1]; Day 10) [%] | purity as detected by HPLC, RH 75% ([1]; Day 0) [%] | purity as detected by HPLC, RH 75% ([1]; Day 5) [%] | purity as detected by HPLC, RH 75% ([1]; Day 10) [%] | purity as detected by HPLC, RH 90% ([1]; Day 0) [%] | purity as detected by HPLC, RH 90% ([1]; Day 5) [%] | purity as detected by HPLC, RH 90% ([1]; Day 10) [%] | purity as detected by HPLC, Lighting ([1]; Day 0) [%] | purity as detected by HPLC, Lighting ([1]; Day 5) [%] | purity as detected by HPLC, Lighting ([1]; Day 10) [%] | further results
3 | CONC(=O)Nc1ccc(-n2nc3c(c2CN(C)C)c(=O)n(-c2ccc(OC)nn2)c(=O)n3Cc2c(F)cccc2F)cc1 [Crystal form C, 1-(4-(7-(2,6-Difluorobenzyl)-3-((dimethylamino)methyl)-5-(6-methoxypyridazin-3-yl)-4,6-dioxo-4,5,6,7-tetrahydro-2H-pyrazolo[3,4-d]pyrimidin-2-yl)phenyl)-3-methoxy urea] | 99.75 | 99.57 | 99.35 | 99.75 | 99.53 | 99.47 | 99.75 | 99.51 | 99.48 | 99.75 | 99.54 | 99.38 | 99.75 | 98.30 | 96.83 | –
4 | CONC(=O)Nc1ccc(-n2nc3c(c2CN(C)C)c(=O)n(-c2ccc(OC)nn2)c(=O)n3Cc2c(F)cccc2F)cc1 [Crystal form D, 1-(4-(7-(2,6-Difluorobenzyl)-3-((dimethylamino)methyl)-5-(6-methoxypyridazin-3-yl)-4,6-dioxo-4,5,6,7-tetrahydro-2H-pyrazolo[3,4-d]pyrimidin-2-yl)phenyl)-3-methoxy urea] | 99.67 | 99.44 | 99.31 | 99.67 | 99.48 | 99.40 | 99.67 | 99.57 | 99.34 | 99.67 | 99.57 | 99.39 | 99.67 | 99.43 | 99.22 | –
5 | CONC(=O)Nc1ccc(-n2nc3c(c2CN(C)C)c(=O)n(-c2ccc(OC)nn2)c(=O)n3Cc2c(F)cccc2F)cc1 [Crystal form I, 1-(4-(7-(2,6-difluorobenzyl)-3-((dimethylamino)methyl)-5-(6-methoxypyridazin-3-yl)-4,6-dioxo-4,5,6,7-tetrahydro-2H-pyrazolo[3,4-d]pyrimidin-2-yl)phenyl)-3-methoxyurea] | 99.36 | 99.33 | 99.41 | 99.36 | 99.24 | 99.30 | 99.36 | 99.22 | 99.31 | 99.36 | 99.27 | 99.27 | 99.36 | 99.26 | 99.20 | crystal form by XRPD test after exposure ([1]; lighting, high humidity and high temperature, spread in the air): not changed; also recorded: unchanged; stability compared with crystal forms A, B, C and D ([1]; lighting, high humidity and high temperature, decrease of HPLC purity): significantly better; DSC peak ([2]; after grinding treatment for 10 minutes): 166.16 °C; DSC peak ([2]; after heating treatment for 3 hours at 80° C.): 168.36 °C; DSC peak ([2]; after tableting treatment): 168.97 °C; crystal form during grinding, heating and tableting procedure ([2]; grinding, heating and tableting): not changed
